The test system of assay [1] is alpha-SG-null C57BL/6 mouse. The experiment in a line: In vivo experiments: histological, functional and biochemical alterations overall. Conditions: alpha-SG-null mice, 30 days in the diet, vs control. The protocol:
(§1) The alpha-SG-null C57BL/6 mouse, one of the most severe models of muscular dystrophy was used. In some experiments wild type (wt) C57BL/6 mouse were used as internal further control.
(§2) In the in vivo experiments the drugs were administered daily in the diet to three months old animals for 30 days. The dose of aspirin was 80 mg/kg, the dose of ISMN was 35 mg/kg and that of ISDN was 10 mg/kg, while the dose of ibuprofen was 15 mg/kg. Prednisolone was used as reference drug at the dose of 2 mg/kg. When combinations of drugs were used, the drugs were both incorporated in the same diet. Control animals received the same diet without any drug incorporation.
The effects of the different drugs and their combination on the number of inflammatory infiltrates, the number of necrotic fibers per section, creatine kinase activity and free wheel distance ran are shown in Table I.

For assay [2], the system named is Satellite cells from alpha-SG-null C57BL/6 mice. Nature of the assay: Fusion index of differentiating satellite cells. The format is cell-based, mouse. The conditions noted are these: for Fusion index compared to control cells, in words: satellite cells, 48 and 72 h; for Fusion index: n = 4. The protocol: FIG. 6: Satellite cells from alpha-SG-null C57BL/6 mice were isolated from 3-5 days old mice and induced to differentiate in the presence of the indicated drugs as described in the methods. Fusion index was determined at 48 and 72 h as the number of nuclei in sarcomeric myosin-expressing cells with more than 2 nuclei vs the total number of nuclei.
In the in vitro experiments, the drugs were applied to satellite cells at the concentration of 100 μM for ISMN, 50 μM for ISDN, 10 μM for ibuprofen, 50 μM for aspirin and 30 μM for prednisolone. When combinations of drugs were used, the drugs were administered at the same time.
Satellite cells were isolated from 3-5 days old mice as described previously with some modifications. In particular, after 3 days from isolation, proliferating myoblasts were harvested, counted, and plated on tissue culture plastic dishes coated with 1 mg/ml type I collagen (SIGMA, C9791). […] Preparations showing less than 90% myogenic cells were discarded. […] Growth medium contained IMDM medium supplemented with 20% Fetal Bovine Serum, 3% Chick Embryo Extract, 100 U/ml Penicillin, 100 μg/ml Streptomycin, 50 μg/ml Gentamycin. Differentiation medium contained IMDM medium supplemented with 2% Horse Serum, 100 U/ml Penicillin, 100 μg/ml Streptomycin. Fusion index was determined as the number of nuclei in sarcomeric myosin-expressing cells with more than 2 nuclei vs the total number of nuclei.
Satellite cells isolated from newborn alpha-SG-null C57BL/6 mice and plated at low density (6×10^3 cells/cm^2) were maintained for 48 h in growth medium, and then switched to the differentiating medium in the presence or absence of ISMN, ISDN, aspirin, ibuprofen, ISMN plus aspirin or ISDN plus ibuprofen.

For assay [3], the system named is alpha-SG-null C57BL/6 mouse. Format: in vivo. On the procedure: FIG. 1: alpha-sarcoglycan (SG)-null C57BL/6 mice were treated for 30 days with the indicated drugs, or combinations of drugs incorporated into the diet as described in the Methods. Serum creatin kinase (CK) concentrations were measured from mouse blood samples obtained by tail vein withdrawal using the indirect colorimetric assay (Roche Diagnostics), following standard procedures.
as §1, §2
Quantitative determination of creatine kinase activity in serum of control and drug treated-animals was measured using creatine kinase reagent (Randox, CK110), according to the manufacturer's instructions. Blood was collected from tail vein and serum obtained after centrifugation at 13000 rpm for 10 minutes was stored at −80° C. before measurements.

Assay [4] concerns alpha-SG-null C57BL/6 mouse. Nature of the assay: Free wheel running (voluntary running wheel activity). Format: in vivo. Conditions: alpha-SG-null mice, drugs daily in the diet, 30 days of treatment, n = 4. On the procedure:
FIG. 2: alpha-SG-null C57BL/6 mice were treated for 30 days with the indicated drugs, or combinations of drugs incorporated into the diet as described in the Methods. Locomotor performance was measured through the Running Wheel Activity, to this end mice were housed individually in cages equipped with a Trixie running wheel. Each wheel revolution was registered through a magnetic switch, which was connected to a counter. The number of revolutions was recorded daily for 6 days. […] The results of 9 experiments ±S.E.M of Running Wheel Activity measured in wild type (wt) C57BL/6 mice are also reported.
as §1, §2
Voluntary wheel running was used as the exercise paradigm to avoid any physiological changes that may occur due to the stress of forced treadmill running. Mice were housed individually in cages equipped with a Trixie running wheel. Each wheel revolution was registered through a magnetic switch, which was connected to a counter. The number of revolutions was recorded daily for 6 days.

In assay [5] the test system is alpha-SG-null C57BL/6 mouse. The experiment in a line: Histology: number of inflammatory infiltrates in muscle sections. Format: in vivo. Conditions: alpha-SG-null mice, drugs daily in the diet, 30 days of treatment, n = 4. The protocol:
FIG. 3: alpha-SG-null C57BL/6 mice were treated for 30 days with the indicated drugs, or combinations of drugs incorporated into the diet as described in the Methods. Tibialis anterior muscles were dissected and frozen in liquid nitrogen-cooled isopentane. The number of inflammatory infiltrates was measured on Azan-Mallory-stained serial muscle sections.
as §1, §2
(§3) Diaphragm and tibialis anterior of untreated and drug-treated mice were isolated and included in Killik® frozen section medium, quickly frozen and cut into 8-μm thick sections with the muscle fibres oriented transversely using a cryostat. Sections were stained with either Hematoxylin&Eosin or Azan Mallory, to evaluate the number of inflammatory infiltrates and necrotic fibres ([…] sections per tissue), respectively.

For assay [6], the system named is alpha-SG-null C57BL/6 mouse. Nature of the assay: Histology: number of necrotic fibres in muscle sections. Format: in vivo. Conditions: alpha-SG-null mice, drugs daily in the diet, 30 days of treatment, n = 4. The protocol:
FIG. 4: alpha-SG-null C57BL/6 mice were treated for 30 days with the indicated drugs, or combinations of drugs incorporated into the diet as described in the Methods. Diaphragm muscles were dissected, frozen in liquid nitrogen-cooled isopentane and stained with hematoxilin & eosin according to standard procedures.
as §1, §2, §3

The mark [7] stands for this setting: serum, alpha-SG-null mice, drugs daily in the diet, 30 days of treatment, n = 4.
The mark [8] stands for this setting: 48 hours of treatment in differentiating medium.
Where [9] appears, read: 72 hours of treatment in differentiating medium.

The structures appear in SMILES notation. Where two headings read alike, the source gives them in different places.

Turning to `O=[N+]([O-])O[C@H]1CO[C@H]2[C@@H]1OC[C@H]2O[N+](=O)[O-]` [ISDN, isosorbide dinitrate], the “Effect on the parameters measured (histological, functional and biochemical alterations), in words” value in assay [1] is recorded as “did not have significant effects”. In assay [2], the “Fusion index compared to control cells, in words” value is on record as “effective on their own”.
On to `C[C@]12C=CC(=O)C=C1CC[C@@H]1[C@@H]2[C@@H](O)C[C@@]2(C)[C@H]1CC[C@]2(O)C(=O)CO` [Prednisolone], for which the CK level in assay [3] (setting [7]) turned out to be 757.6 ± 37.5 U/l. Further, the Free wheel test in assay [4] was 0.38 ± 0.1 km/24 h. Besides, the “N° of inflammatory infiltrates/sections” value in assay [5] stood at 103.4 ± 12.0. Further, the results for the Fusion index in assay [2] (setting [8]) and in assay [2] (setting [9]) were 18 ± 0.9% and 41 ± 2.0%, respectively. For the same compound, the “N° of necrotic fibres/section” value in assay [6] came to 217.3 ± 37.3.
On to `CC(C)Cc1ccc(C(C)C(=O)O)cc1` (stereo not drawn) [Ibuprofen], for which the CK level in assay [3] (setting [7]) is on record as 851 ± 41 U/l. Also, in assay [4], the Free wheel test is 0.12 ± 0.01 km/24 h. The “N° of inflammatory infiltrates/sections” value in assay [5] came out at 116.1 ± 11.1°. In assay [1], the “Effect on the parameters measured (histological, functional and biochemical alterations), in words” value was “did not have significant effects”. Also, the Fusion index in assay [2] (setting [8]) is recorded as 21 ± 1.2%; in assay [2] (setting [9]), 42 ± 2.3%. Moreover, the “N° of necrotic fibres/section” value in assay [6] amounted to 269.0 ± 34.3.
As for `CC(=O)Oc1ccccc1C(=O)O` [Aspirin], the CK level in assay [3] (setting [7]) turned out to be 841 ± 33 U/l. The Free wheel test in assay [4] worked out at 0.15 ± 0.02 km/24 h. In assay [5], the “N° of inflammatory infiltrates/sections” value came to 122.2 ± 17.1°. Further, the “Effect on the parameters measured (histological, functional and biochemical alterations), in words” value in assay [1] is “did not have significant effects”. Also, the Fusion index is on record as 20 ± 1.9% in assay [2] (setting [8]) and 43 ± 1.7% in assay [2] (setting [9]). Moreover, the “N° of necrotic fibres/section” value in assay [6] was determined as 249.0 ± 32.1.
Take `O=[N+]([O-])O[C@@H]1CO[C@H]2[C@@H]1OC[C@@H]2O` [ISMN, isosorbide-mononitrate]: in assay [3] (mouse, in vivo), the CK level is 787 ± 33 U/l. In addition, the Free wheel test in assay [4] was 0.18 ± 0.03 km/24 h. In assay [5], the “N° of inflammatory infiltrates/sections” value is 190.2 ± 33.2. In addition, in assay [1], the “Effect on the parameters measured (histological, functional and biochemical alterations), in words” value is on record as “did not have significant effects”. Also, the Fusion index came to 41 ± 2.2 % in assay [2] (setting [8]) and 76 ± 3.3 % in assay [2] (setting [9]). The “Fusion index compared to control cells, in words” value in assay [2] is “effective on their own”. In assay [6], the “N° of necrotic fibres/section” value was 238.0 ± 27.2.
